Earlier results, collected in article PMC4783179 (The Journal of comparative neurology, 2015).
Marks after values point to notes of the source that are not given here.

Details: human plasma; ref Hillmer et al., 2014; cited from earlier work

## COc1ccccc1N1CCN(CCN(C(=O)C2CCC(CF)CC2)c2ccccn2)CC1 (stereo not shown) [Mefway]
  Free Fraction in plasma: 5% ^j
